Results on 28 molecules are retold here after patent EP4782453A1 (Beyang Therapeutics Co., Ltd., priority 2023, dated 2025).

Structures are written as SMILES.

In one test the target is T1, Menin-MLL (Homo sapiens, UniProt O00255).
T1 construct: His-Menin (M1-L615 end); purchased BIORTUS BP9210
T1 sequence (O00255 1-615 isoform O00255-1): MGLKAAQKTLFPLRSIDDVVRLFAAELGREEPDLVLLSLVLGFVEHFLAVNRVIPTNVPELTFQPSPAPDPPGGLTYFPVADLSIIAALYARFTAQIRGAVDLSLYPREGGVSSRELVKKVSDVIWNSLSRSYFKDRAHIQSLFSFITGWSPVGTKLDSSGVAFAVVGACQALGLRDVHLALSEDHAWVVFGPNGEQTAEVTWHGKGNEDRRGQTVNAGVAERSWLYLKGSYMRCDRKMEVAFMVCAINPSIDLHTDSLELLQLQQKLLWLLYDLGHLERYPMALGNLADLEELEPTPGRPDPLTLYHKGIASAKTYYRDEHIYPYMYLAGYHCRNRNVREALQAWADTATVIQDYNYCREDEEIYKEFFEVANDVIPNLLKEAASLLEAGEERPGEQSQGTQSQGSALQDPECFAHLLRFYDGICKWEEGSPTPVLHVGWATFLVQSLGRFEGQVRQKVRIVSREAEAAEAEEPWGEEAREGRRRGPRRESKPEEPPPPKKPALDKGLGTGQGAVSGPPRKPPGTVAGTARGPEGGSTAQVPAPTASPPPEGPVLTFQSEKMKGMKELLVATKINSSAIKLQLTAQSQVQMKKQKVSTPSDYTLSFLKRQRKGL
Nature of the test: Inhibitory activity against Menin-MLL binding (fluorescence polarization). To be noted: Menin-MLL IC50, fluorescence polarization; 150 nM His-Menin, 15 nM FITC-MLL; 25°C for 60 min. The method, boiled down: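 His-Menin (M1-L615, 150 nM) preincubated with compound 15 min at 25 °C in HEPES pH 7.5, 50 mM NaCl, 1 mM DTT, 0.01% BSA, then 15 nM FITC-MLL4-43 peptide added for 60 min at 25 °C. Fluorescence polarization read; IC50 from 4-parameter logistic fit, duplicates.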
In general terms: Polarisation of emitted light reports the rotation of a fluorescent probe.
The IC50 is the concentration that inhibits the measured activity by half. On to `CCN(C(=O)c1cc(F)ccc1-c1cc(C2CCN(C[C@]3(O)CC[C@@H](NS(=O)(=O)CC)CC3)C2)cc2c1cnn2C)C(C)C` (stereo partly shown) [Compound 55, N-ethyl-5-fluoro-2-[1-methyl-6-(1-{[(1s,4s)-4-ethanesulfonamido-1-hydroxylcyclohexyl]methyl}pyrrolidin-3-yl)-1H-indazol-4-yl]-N-(isopropyl)benzamide], for which the IC50 amounted to 21 nM. In turn, `COCCN(C(=O)c1cc(F)ccc1-c1cc(C2CN([C@@H](CCCN3C[C@H]4C[C@@H]3CO4)C(C)C)C2)cn2c(C)ncc12)C(C)C` [Example 467-2, 5-fluoro-N-(2-methoxyethyl)-2-(3-methyl-6-{1-[(3S)-2-methyl-6-[(1R,4R)-2-oxa-5-azadicyclo[2.2.1]heptan-5-yl]hexan-3-yl]azacyclobutan-3-yl}imidazo[1,5-a]pyridin-8-yl)-N-(isopropyl)benzamide] displayed an IC50 of 54 nM. In turn, `CCOC(=O)N1CCN(CCC[C@H](C(C)C)N2CC(c3cc(-c4ccc(F)cc4C(=O)N(CC)C(C)C)c4cnc(C)n4c3)C2)CC1` [Example 471] returned an IC50 of 4.8 nM.

`CCS(=O)(=O)N[C@H]1CC[C@H](CN2CC(c3cc(-c4ccc(F)cc4C(=O)N(CC(F)F)C(C)C)c4cnn(C)c4c3)C2)CC1` [Example 153, N-(2,2-difluoroethyl)-5-fluoro-2-[1-methyl-6-(1-{[(1r,4r)-4-ethanesulfonamidocyclohexyl]methyl}-azacyclobutan-3-yl)-1H-indazol-4-yl]-N-(isopropyl)benzamide]: the IC50 amounted to 31 nM. The same measure, in the same setting: the result for `CCN(C(=O)c1cc(F)ccc1-c1cc(N2CCN(C(=O)[C@@H]3CCCCN3)CC2)cn2c(C)ncc12)C(C)C` [Example 81] reads 188 nM; that for `CCS(=O)(=O)N[C@H]1CC[C@H](C(C)N2CC(c3cc(-c4ccc(F)cc4C(=O)N4CCOC[C@H]4C)c4cnn(C)c4c3)C2)CC1` (stereo partly drawn) [Example 178, N-[(1r,4r)-4-{1-[3-(4-{4-fluoro-2-[(3R)-3-methylmorpholin-4-carbonyl]phenyl}-1-methyl-1H-indazol-6-yl)azacyclobutan-1-yl]ethyl}cyclohexyl]ethan-1-sulfonamide], 115 nM. `CCN(C(=O)c1cc(F)ccc1-c1cc(C2CCN(C[C@H]3CC[C@H](NS(=O)(=O)CC)CC3)C2)cn2cncc12)C(C)C` (mixture of isomers) [Example 22, N-ethyl-5-fluoro-N-isopropyl-2-[6-(1-{[(1r,4r)-4-ethanesulfonamidocyclohexyl]methyl}pyrrolidin-3-yl)imidazo[1,5-a]pyridin-8-yl]benzamide]: the IC50 was 25 nM. The molecule `CCN(C(=O)c1cc(F)ccc1-c1cc(C2CN(C(=O)[C@@H]3CCCN3)C2)cn2c(C)nc(Cl)c12)C(C)C` [Example 125] displayed an IC50 of 26.5 nM.

The test is the same for the next values; noted with them: fluorescence polarization; 150 nM His-Menin, 15 nM FITC-MLL; 25°C for 60 min; read-out: Menin-MLL IC50.
For `CCN(C(=O)c1cc(F)ccc1-c1cc(CC2CN([C@@H](CCCN(C)CCOC)C(C)C)C2)n2c(C)cncc12)C(C)C` [Example 296-2, N-ethyl-5-fluoro-2-[6-({1-[(3S)-6-[(2-methoxyethyl)(methyl)amino]-2-methylhexan-3-yl]azacyclobutan-3-yl}methyl)-4-methylpyrrolo[1,2-a]pyrazin-8-yl]-N-(isopropyl)benzamide], the IC50 stood at 3 nM. For `CCN(C(=O)c1cc(F)ccc1-c1cc(C2CCN(CC3CCC(NS(=O)(=O)CC)CC3)C2)cn2c(C)nnc12)C(C)C` (stereo not shown) [Example 80, 2-(6-{1-[(4-ethanesulfonamidocyclohexyl)methyl]pyrrolidin-3-yl}-3-methyl-[1,2,4]triazolo[4,3-a]pyridin-8-yl)-N-ethyl-5-fluoro-N-(isopropyl)benzamide], the IC50 turned out to be 122 nM.

`CCN(C(=O)c1cc(F)ccc1-c1cc(C2CCN(C[C@H]3CC[C@H](N4CCOC4=O)CC3)C2)cn2cncc12)C(C)C` (stereo partly shown) [Example 47]: the IC50 turned out to be 25 nM. Still for that read-out and setting: the result for `CCN(C(=O)c1cc(F)ccc1-c1cc(C2(F)CN(C(=O)[C@H]3N[C@@H]4CC[C@H]3C4)C2)cn2cncc12)C(C)C` [Example 34, 2-(6-{1-[(1R,3S,4S)-2-azabicyclo[2.2.1]heptan-3-carbonyl]-3-fluoroazacyclobutan-3-yl}imidazo[1,5-a]pyridin-8-yl)-N-ethyl-5-fluoro-N-(isopropyl)benzamide] reads 168 nM. For the molecule `Cc1nc(F)c2c(-c3ccc(F)cc3C(=O)N(CC(F)F)C(C)C)cc(C3CN(C(=O)[C@H]4NCC[C@@H]4C)C3)cn12` [Example 156], the IC50 amounted to 30 nM.

As for `CCN(C(=O)c1cc(F)ccc1-c1cc(C2CN(C(C)C3CCN(C(C)=O)CC3)C2)cn2c(C)ncc12)C(C)C` (stereo not shown) [Example 281], the IC50 is 7 nM.

Take `CCN(C(=O)c1cc(F)ccc1-c1cc(C2CN([C@@H](CCCN3CCN(C)CC3)C(C)C)C2)cn2c(C)nc(F)c12)C(C)C` [Example 312-1]: the half-inhibitory concentration (IC50) came out at 32 nM. Turning to `Cc1ncc2c(-c3ccc(F)cc3C(=O)N3CCOC[C@H]3C)cc(C3CN([C@@H](CCCN4CCN(C)CC4)C(C)C)C3)cn12` [Example 323-1, (3R)-4-[5-fluoro-2-(3-methyl-6-{1-[(3S)-2-methyl-6-(4-methylpiperazin-1-yl)hexan-3-yl]azacyclobutan-3-yl}imidazo[1,5-a]pyridin-8-yl)benzoyl]-3-methylmorpholine], the IC50 worked out at 179 nM. As for `CCC(=O)N1CCN(CCC[C@H](C(C)C)N2CC(c3cc(-c4ccc(F)cc4C(=O)N4CCOC[C@H]4C)c4c(F)nc(C)n4c3)C2)CC1` [Example 335], the IC50 is 8 nM.

For the molecule `Cc1nc(F)c2c(-c3ccc(F)cc3C(=O)N3CCOC[C@H]3C)cc(C3CN([C@@H](C)C4CCN(C(=O)C(F)F)CC4)C3)cn12` [Example 300], the IC50 was found to be 24 nM.

Take `CC(C)N(CC(F)F)C(=O)c1cc(F)ccc1-c1cc(C2CCN(CCN3CCC(NC(=O)OC(C)(C)C)CC3)C2)cc2c1cnn2C` (racemic) [Example 166, N-(1-{2-[3-(4-{2-[(2,2-difluoroethyl)(isopropyl)aminoformyl]-4-fluorophenyl}-1-methyl-1H-indazol-6-yl)pyrrolidin-1-yl]ethyl}piperidin-4-yl)tert-butyl carbamate]: the IC50 was 271 nM. With `Cc1nc(F)c2c(-c3ccc(F)cc3C(=O)N3CCOC[C@H]3C)cc(C3CN(C(CC[C@H]4CN(C)CCO4)C(C)C)C3)cn12` (stereo partly drawn) [Example 308, (3R)-4-{5-fluoro-2-[1-fluoro-3-methyl-6-(1-{4-methyl-1-[(2S)-4-methylmorpholin-2-yl]pentan-3-yl}azacyclobutan-3-yl)imidazo[1,5-a]pyridin-8yl]benzoyl}-3-methylmorpholine], the IC50 stood at 49 nM. For the molecule `CCN(C(=O)c1cc(F)ccc1-c1cc(C2CCN(C[C@H]3C[C@@H](NS(=O)(=O)CC)C3)C2)cn2c(C)ncc12)C(C)C` (stereo partly shown) [Example 103], the IC50 was 70.5 nM. Turning to `CCS(=O)(=O)N[C@H]1CC[C@H](CN2CC(c3cc(-c4ccc(F)cc4C(=O)N4CCOC[C@@H]4C)c4cnc(C)n4c3)C2)CC1` [Example 135], the IC50 worked out at 102 nM.

With `C=C1CN[C@H](C(=O)N2CCC(c3cc(-c4ccc(F)cc4C(=O)N(CC(F)F)C(C)C)c4cnc(C)n4c3)CC2)C1` [Example 144], the IC50 turned out to be 51 nM. Turning to `Cc1nc(F)c2c(-c3ccc(F)cc3C(=O)N3CCOC[C@H]3C)cc(C3CN(C(CC[C@@H]4COCCN4C)C(C)C)C3)cn12` (stereo partly drawn) [Example 372, (3R)-4-{5-fluoro-2-[1-fluoro-3-methyl-6-(1-{4-methyl-1-[(3R)-4-methylmorpholin-3-yl]pentan-3-yl}azacyclobutan-3-yl)imidazo[1,5-a]pyridin-8-yl]benzoyl}-3-methylmorpholine], the IC50 stood at 32 nM. For `C=C1CN[C@H](C(=O)N2CC(c3cc(-c4ccc(F)cc4C(=O)N(CC)C(C)C)c4c(F)nc(C)n4c3)C2)C1` [Example 130], the IC50 came out at 62 nM.

For `CCN(C(=O)c1cc(F)ccc1-c1cc(C2CN([C@@H](CCCN3CCN(C(C)=O)CC3)C(C)C)C2)cn2c(C)ncc12)C(C)C` [Example 311-1, 2-(6-{1-[(3S)-6-(4-acetylpiperazin-1-yl)-2-methylhexan-3-yl]azacyclobutan-3-yl}-3-methylimidazo[1,5-a]pyridin-8-yl)-N-ethyl-5-fluoro-N-(isopropyl)benzamide], the IC50 came to 42 nM. For the molecule `CCN(C(=O)c1cc(F)ccc1-c1cc(C2CCN(C(=O)[C@H]3N[C@@H]4CC[C@H]3C4)C2)cc2c1cnn2C)C(C)C` (stereo partly drawn) [Example 31, 2-(6-{1-[(1R,3S,4S)-2-azabicyclo[2.2.1]heptan-3-carbonyl]pyrrolidin-3-yl}-1-methyl-1H-indazol-4-yl)-N-ethyl-5-fluoro-N-(isopropyl)benzamide], the IC50 was determined as 275 nM. On to `CCS(=O)(=O)N[C@@H]1CC[C@@H](CN2CC[C@H](c3cc(-c4ccc(F)cc4C(=O)N(CC(F)F)C(C)C)c4cnc(C)n4c3)C2)OC1` [Example 163-2, N-(2,2-difluoroethyl)-2-{6-[(3R)-1-{[(2S,5R)-5-ethanesulfonamidooxacyclohexan-2-yl]methyl}pyrrolidin-3-yl]-3-methylimidazo[1,5-a]pyridin-8-yl}-5-fluoro-N-(isopropyl)benzamide], for which the IC50 is 54 nM.
